From patent publication US20110094885A1, “Flexible Drug Delivery Chip, its Fabrication Method and Uses Thereof” (NATIONAL CHIAO TUNG UNIVERSITY, priority 2009, published 2011) come the findings set out here.

The test has as its system spontaneous SWDs. The test is described as follows: Spontaneous spike-wave discharges (SWDs) in Long-Evans rats. As to conditions: 0.5 ml, 28 mg/kg, i.p.; vs saline; n=8. It counts as in vivo. As for the experimental part:
All rats were kept in a sound-attenuated room under a 12:12 hour light-dark cycle (07:00-19:00 lights on) with food and water provided ad libitum. The experimental procedures were reviewed and approved by the Institutional Animal Care and Use Committee. Briefly, the recording electrodes were implanted under pentobarbital anesthesia (60 mg/kg, i.p.). Subsequently, the rat was placed in a standard stereotaxic apparatus. In total, six stainless steel screws were driven bilaterally into the skull overlying the frontal (A +2.0, L 2.0 with reference to the bregma) and occipital (A −6.0, L 2.0) regions of the cortex to record cortical field potentials. A ground electrode was implanted 2 mm caudal to lambda. Dental cement was applied to fasten the connection socket to the surface of the skull. Following suturing to complete the surgery, animals were given an antibiotic (chlortetracycline) and housed individually in cages for recovery. […] In this preliminary animal test, we compared effect among saline, ethosuximide (ESM), ESM-loaded nanoparticles (ESM-Fe3O4@SiO2) and ESM-containing chip (ESM-Chip) in spontaneous SWDs of Long-Evans rats. […] In this experiment, we recorded 1-hour spontaneous brain activity before the treatment (baseline) and another 1-hour spontaneous brain activity 30 minutes after the treatment. […]

With `CCC1(C)CC(=O)NC1=O` (centres unmarked) [ESM, ethosuximide], the SWD number result is “significantly decreased” and the “total SWD duration” value is on record as “significantly decreased”.
